A word on the pIC50: it is the IC50 on a negative log10 scale, so that one unit is a factor of ten. High values mean a low IC50, low ones a high IC50.

For experiment [1], the target named is T1, menin/MLL (terbium chelate-labeled menin, FITC-MBM1 peptide) (Homo sapiens, UniProt O00255, T541A).
T1 construct: Menin (a.a 1-610-6xhis tag, 2.3 mg/mL in 20 mM Hepes)
T1 sequence (O00255 with tags, fused parts or gaps T541A): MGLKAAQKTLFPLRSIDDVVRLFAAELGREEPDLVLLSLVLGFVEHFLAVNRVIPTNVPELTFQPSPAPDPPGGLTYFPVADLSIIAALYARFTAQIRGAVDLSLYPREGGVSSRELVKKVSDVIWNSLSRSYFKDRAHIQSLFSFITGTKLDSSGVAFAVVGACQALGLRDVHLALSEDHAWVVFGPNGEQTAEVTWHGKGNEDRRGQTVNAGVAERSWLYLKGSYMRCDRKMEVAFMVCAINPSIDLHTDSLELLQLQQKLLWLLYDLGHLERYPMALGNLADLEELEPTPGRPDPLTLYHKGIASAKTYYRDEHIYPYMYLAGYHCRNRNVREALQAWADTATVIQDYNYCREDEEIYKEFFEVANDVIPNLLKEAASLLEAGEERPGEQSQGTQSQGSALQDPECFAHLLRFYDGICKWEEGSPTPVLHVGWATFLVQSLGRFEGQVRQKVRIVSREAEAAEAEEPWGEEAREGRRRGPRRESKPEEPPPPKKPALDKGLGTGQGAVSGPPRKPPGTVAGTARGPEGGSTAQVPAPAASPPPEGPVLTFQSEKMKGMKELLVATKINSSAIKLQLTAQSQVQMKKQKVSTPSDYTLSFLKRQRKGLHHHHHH
Kind of experiment: Menin/MLL homogenous time-resolved fluorescence (HTRF) assay. It counts as binding. Particulars: 30 min incubation. The gist of the method: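 Terbium-labeled menin (a.a. 1-610, His-tagged; […]) pre-incubated 30 min with compound, then 75 nM FITC-MBM1 peptide added for 15 min at ambient temperature in Tris pH 7.5 buffer, 0.5% DMSO. HTRF 520/490 nm ratio read; IC50 from 11-point four-fold titrations, typically from 10 μM.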
In general terms: Time-resolved FRET reads energy transfer from a long-lived donor to a nearby acceptor.

A further experiment deals with MEIS1 mRNA expression. Kind of experiment: MEIS1 mRNA expression assay (Quantigene Singleplex) in MOLM14 cells. It counts as cell-based, human. Particulars: 48 hours incubation. The gist of the method: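 MOLM14 cells, 3,750/well, exposed to increasing compound concentrations for 48 h. MEIS1 mRNA measured by QuantiGene Singleplex branched-DNA hybridization (lysis 45 min, hybridization 18–22 h, both 55 °C), normalized to RPL28. IC50 fitted to background-corrected fold change versus DMSO.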

pIC50: −log10 of the molar value. Bounds are passed on as bounds.

With `CC(=O)N1[C@@H](C)CC(N2CC(Cc3cn(-c4ccc(F)cc4C(=O)N(C)C(C)C)c4cncc(C)c34)C2)C[C@@H]1C` (some centres unmarked) [Compound 302], the pIC50 in experiment [1] is 10.30; with MEIS1 mRNA expression (Homo sapiens, MOLM-14, 48 h), 7.11.
For `CC(=O)N1CC2CC(CN3CC[C@@H](Cc4cn(-c5ccc(F)cc5C(=O)N5CCC[C@H]5CO)c5cncc(C)c45)C3)CC(C2)C1` (some centres unmarked) [Compound 349] the same measures were 8.17 and < 6.00.
The like results for `Cc1cncc2c1c(CC1CN(CC3CCOCC3)C1)cn2-c1ccc(F)cc1C(=O)N1CCCCC1C` (centres unmarked) [Compound 280] were, in that order, 10.11 and 7.29.
The like results for `CC(=O)N1CC2(CC(CN3CCC(Cc4cn(-c5ccc(F)cc5C(=O)N(C)C(C)C)c5cncc(C)c45)C3)C2)C1` (centres unmarked) [Compound 107] were, in that order, 9.73 and 6.65.
`CC(=O)N1CC[C@H](CN2CCC(Cc3cn(-c4ccc(F)cc4C(=O)N(C)C(C)C)c4cncc(C)c34)CC2)C1` [Compound 113]: the pIC50 was 9.19 in experiment [1] and ~6.31 with MEIS1 mRNA expression (Homo sapiens, MOLM-14, 48 h).
As to `Cc1cncc2c1c(C[C@@H]1CCN([C@H](CCO)C3CCOCC3)C1)cn2-c1ccc(F)cc1C(=O)N(C)C(C)C` (single isomer, unassigned) [Compound 253a], the pIC50 was 8.83 in experiment [1] and ~6.27 in the experiment with MEIS1 mRNA expression (Homo sapiens, MOLM-14, 48 h).
`CCC(C1CCN(C(C)=O)CC1)N1CC[C@@H](Cc2cn(-c3ccc(F)cc3C(=O)N(C)C(C)C)c3cncc(C)c23)C1` (single isomer, unassigned) [Compound 247]: the pIC50 in experiment [1] is 9.75; with MEIS1 mRNA expression, 6.94.
Turning to `Cc1cncc2c1c(CC1CN(CC3CCOCC3)C1)cn2-c1ccc(F)cc1C(=O)N1C[C@H](O)C[C@@H]1C` [Compound 282], the negative-log IC50 (pIC50) in experiment [1] was 8.49; in the experiment with MEIS1 mRNA expression (Homo sapiens, MOLM-14, 48 h), < 6.00.
For the molecule `COCC1CCCN1C(=O)c1cc(F)ccc1-n1cc(CC2CN(CC3CCOCC3)C2)c2c(C)cncc21` (centres unmarked) [Compound 267], the pIC50 in experiment [1] is 9.62; with MEIS1 mRNA expression (Homo sapiens, MOLM-14, 48 h), 6.78.
The like results for `CCc1cncc2c1c(C[C@@H]1CCN(CC3CCN(C(C)=O)CC3)C1)cn2-c1ccc(F)cc1C(=O)N(C)C(C)C` [Compound 259] were, in that order, 10.51 and 6.86.
Take `Cc1cncc2c1c(C=C1CCN(CC3CCOCC3)C1)cn2-c1ccc(F)cc1C(=O)N(C)C(C)C` (single isomer, unassigned) [Compound 523b]: the pIC50 in experiment [1] was 9.91; with MEIS1 mRNA expression it was 7.21.
`COC(=O)N1CCC(CN2CC[C@@H](Cc3cn(-c4ccc(F)cc4C(=O)N(CCO)C(C)C)c4cncc(C)c34)C2)CC1` [Compound 334]: the pIC50 in experiment [1] was 9.65; in the experiment with MEIS1 mRNA expression (Homo sapiens, MOLM-14, 48 h) it was 7.92.
The like results for `Cc1cncc2c1c(C[C@@H]1CCN(CC3CCOCC3)C1)cn2-c1ccc(F)cc1C(=O)N1CC[C@H](O)C1(C)C` (single isomer, unassigned) [Compound 364b] were, in that order, 9.53 and ~6.17.
On to `CC(=O)N1C[C@@H]2CN(CCC[C@H](C(C)C)N3CC[C@@H](Cc4cn(-c5ccc(F)cc5C(=O)N(C)C(C)C)c5cncc(Cl)c45)C3)C[C@H]2C1` (single isomer, unassigned) [Compound 18a], for which the pIC50 in experiment [1] is 10.72; in the experiment with MEIS1 mRNA expression (Homo sapiens, MOLM-14, 48 h) it was 8.30.
Regarding `Cc1cncc2c1c(CC1CN([C@H](C)C3CCS(=O)(=O)CC3)C1)cn2-c1ccc(F)cc1C(=O)N(C)C(C)C` (single isomer, unassigned) [Compound 213a], the pIC50 is 9.25 in experiment [1] and 5.94 with MEIS1 mRNA expression (Homo sapiens, MOLM-14, 48 h).
The like results for `Cc1cncc2c1c(CC1CN(C[C@H]3CC[C@H](C(=O)N(C)C)CC3)C1)cn2-c1ccc(F)cc1C(=O)N(C)C(C)C` [Compound 142] were, in that order, 10.07 and 8.00.
The like results for `CC(=O)N1CC2CC(CN3CC[C@@H](Cc4cn(-c5ccc(F)cc5C(=O)N(CC(C)O)C(C)C)c5cncc(C)c45)C3)CC(C2)C1` (some centres unmarked) [Compound 350] were, in that order, 9.23 and ~6.00.
With `CCN(C(=O)c1cc(F)ccc1-n1cc(CC2CN(C(C(C)C)[C@H]3C[C@H](N4CCN(S(C)(=O)=O)CC4)C3)C2)c2c(C)cncc21)C(C)C` (some centres unmarked) [Compound 37b], the pIC50 is 9.63 in experiment [1] and 7.55 with MEIS1 mRNA expression (Homo sapiens, MOLM-14, 48 h).
For `CC(=O)N1C[C@@H]2CN([C@H]3C[C@@H](C(C(C)C)N4CC[C@@H](Cc5cn(-c6ccc(F)cc6C(=O)N(C)C(C)C)c6cncc(C)c56)C4)C3)C[C@H]2C1` (mixture of isomers) [Compound 20] the same measures were ~9.72 and > 8.77.

The record behind these values is patent US20230250096A1, “SUBSTITUTED PHENYL-1H-PYRROLO[2,3-c] PYRIDINE DERIVATIVES” (Janssen Pharmaceutica NV, priority 2021, published 2023).
